Experimental data taken from patent publication US20070128217A1 (priority 2003, published 2007).

Assays:
[1] = test system: rabbit serum obtained by immunizing a rabbit with the SARS-CoV strain Frankfurt 1; assay type: binding; parameters: Binding of a rabbit serum to linear peptides / Binding of a rabbit serum to looped peptides / Rabbit serum linear peptides / Rabbit serum looped peptides / Binding of a rabbit serum to linear peptides of protein N of SARS-CoV Urbani (Rabbit serum linear peptides) / Binding of a rabbit serum to looped/cyclic peptides of protein N of SARS-CoV Urbani (Rabbit serum looped peptides): unit not given here
[2] = test system: recombinant human anti-SARS-CoV antibody 03-018; assay type: binding; parameters: Binding of antibody 03-018 to linear peptides of the N protein of SARS-CoV Urbani / Binding of antibody 03-018 to looped/cyclic peptides of the N protein of SARS-CoV Urbani: unit not given here
[3] = test system: control sera (pooled serum of ten healthy LUMC hospital workers; commercial negative donor pooled serum from the Dutch bloodbank); assay type: binding, human; parameters: Binding of Control serum LUMC to linear peptides / Binding of Control serum Blood-bank to linear peptides / Binding of Control serum LUMC to looped peptides / Binding of Control Serum Blood-Bank to Looped peptides / Binding of Control serum LUMC to linear peptides of the protein M of SARS-CoV Urbani / Binding of Control serum Blood-bank to linear peptides of the protein M of SARS-CoV Urbani / Binding of Control serum LUMC to looped peptides of the protein M of SARS-CoV Urbani / Binding of Control Serum Blood-Bank to Looped peptides of the protein M of SARS-CoV Urbani: unit not given here
[4] = test system: antibodies in sera from SARS patients (sera 1a, 1b, 2, 6, 37, 62, London, SARS-yellow, SARS-green); assay type: binding, human; parameters: Binding of serum 6 to linear peptides of protein X1 of SARS-CoV Urbani / Binding of serum 37 to linear peptides of protein X1 of SARS-CoV Urbani / Binding of serum 6 to looped/cyclic peptide (PEPSCAN-ELISA) / Binding of serum 37 to looped/cyclic peptide (PEPSCAN-ELISA) / Binding of serum 37 to looped/cyclic peptides of protein X1 of SARS-CoV Urbani / Binding of serum 6 to linear peptides of protein X2 / Binding of serum 37 to linear peptides of protein X2 / Binding of serum 37 to looped/cyclic peptides of protein X2 of SARS-CoV Urbani / Binding of serum 6 to linear peptides of protein M of SARS-CoV Urbani / Binding of serum 37 to linear peptides of protein M of SARS-CoV Urbani / Binding of serum 6 to looped/cyclic peptides of protein M of SARS-CoV Urbani / Binding of serum 37 to looped/cyclic peptides of protein M of SARS-CoV Urbani / Binding of serum 6 to linear peptides of protein X3 of SARS-CoV Urbani / Binding of serum 37 to linear peptides of protein X3 of SARS-CoV Urbani / Binding of serum 37 to looped/cyclic peptides of protein X3 of SARS-CoV Urbani / Binding of serum 6 to linear peptides of protein X4 of SARS-CoV Urbani / Binding of serum 37 to linear peptides of protein X4 of SARS-CoV Urbani / Binding of serum 37 to looped/cyclic peptides of protein X4 of SARS-CoV Urbani / Binding of serum 6 to linear peptides of protein X5 of SARS-CoV Urbani / Binding of serum 37 to linear peptides of protein X5 of SARS-CoV Urbani / Binding of serum 37 to looped/cyclic peptides of protein X5 of SARS-CoV Urbani / Binding of serum 6 to linear peptides of protein N of SARS-CoV Urbani / Binding of serum 37 to linear peptides of protein N of SARS-CoV Urbani / Binding of serum 6 to linear peptide (PEPSCAN-ELISA) / Binding of serum 1a to looped/cyclic peptides of protein N of SARS-CoV Urbani / Binding of serum 1b to looped/cyclic peptides of protein N of SARS-CoV Urbani / Binding of serum 2 to looped/cyclic peptides of protein N of SARS-CoV Urbani / Binding of serum 6 to looped/cyclic peptides of protein N of SARS-CoV Urbani / Binding of serum 37 to looped/cyclic peptides of protein N of SARS-CoV Urbani / Binding of serum 62 to looped/cyclic peptides of protein N of SARS-CoV Urbani / Binding of serum London to looped/cyclic peptides of protein N of SARS-CoV Urbani / Binding of serum SARS-green to looped/cyclic peptides of protein N of SARS-CoV Urbani: unit not given here

| Sequence | Binding of antibody 03-018 to linear peptides of the N protein of SARS-CoV Urbani [2] | Binding of antibody 03-018 to looped/cyclic peptides of the N protein of SARS-CoV Urbani [2] | Binding of Control Serum Blood-Bank to Looped peptides [3] | Binding of Control serum Blood-bank to linear peptides [3] | Binding of Control serum LUMC to linear peptides [3] | Binding of Control serum LUMC to looped peptides [3] | Binding of serum 1a to looped/cyclic peptides of protein N of SARS-CoV Urbani [4] | Binding of serum 1b to looped/cyclic peptides of protein N of SARS-CoV Urbani [4] | Binding of serum 2 to looped/cyclic peptides of protein N of SARS-CoV Urbani [4] | Binding of serum 6 to looped/cyclic peptides of protein N of SARS-CoV Urbani [4] | Binding of serum 37 to looped/cyclic peptides of protein N of SARS-CoV Urbani [4] | Binding of serum 62 to looped/cyclic peptides of protein N of SARS-CoV Urbani [4] | Binding of serum London to looped/cyclic peptides of protein N of SARS-CoV Urbani [4] | Binding of serum SARS-green to looped/cyclic peptides of protein N of SARS-CoV Urbani [4] | Binding of serum SARS-yellow to looped/cyclic peptides of protein N of SARS-CoV Urbani [4] | Binding of a rabbit serum to linear peptides of protein N of SARS-CoV Urbani (Rabbit serum linear peptides) [1] | Binding of a rabbit serum to looped/cyclic peptides of protein N of SARS-CoV Urbani (Rabbit serum looped peptides) [1] | Binding of serum 1a to linear peptides of protein N of SARS-CoV Urbani [4] | Binding of serum 1b to linear peptides of protein N of SARS-CoV Urbani [4] | Binding of serum 2 to linear peptides of protein N of SARS-CoV Urbani [4] | other results |
| --- | --- | --- | --- | --- | --- | --- | --- | --- | --- | --- | --- | --- | --- | --- | --- | --- | --- | --- | --- | --- | --- |
| RNSTPGSSRGNSPAR | 0.1 | 0.2 | 0.6 | 0.9 | 0.8 | 0.7 | 0.4 | 0.3 | 0.4 | 0.3 | 0.5 | 0.5 | 0.5 | 0.1 | 0.5 |  |  |  |  |  | Recognition of the peptide by the rabbit serum [1]: recognized; Binding of serum 1a to linear peptide (PEPSCAN-ELISA) [4]: 0.6; Binding of serum 1b to linear peptide (PEPSCAN-ELISA) [4]: 0.3; Binding of serum 2 to linear peptide (PEPSCAN-ELISA) [4]: 0.3; Binding of serum 6 to linear peptide (PEPSCAN-ELISA) [4]: 0.2; Binding of serum 37 to linear peptide (PEPSCAN-ELISA) [4]: 0.7; Binding of serum 62 to linear peptide (PEPSCAN-ELISA) [4]: 0.7; Binding of serum London to linear peptide (PEPSCAN-ELISA) [4]: 0.4; Binding of serum SARS-green to linear peptide (PEPSCAN-ELISA) [4]: 0.4; Binding of serum SARS-yellow to linear peptide (PEPSCAN-ELISA) [4]: 0.7 |
| RPKQRRPQGLPNNTA | 0.1 | 0.2 | 0.4 | 0.8 | 0.7 | 0.5 | 0.3 | 0.1 | 0.3 | 0.3 | 0.5 | 0.5 | 0.4 | 0.2 | 0.3 | 0.4 | 0.4 | 0.3 | 0.1 | 0.3 | Binding of serum 6 to linear peptides of protein N of SARS-CoV Urbani [4]: 0.2; Binding of serum 37 to linear peptides of protein N of SARS-CoV Urbani [4]: 0.7; Binding of serum 62 to linear peptides of protein N of SARS-CoV Urbani [4]: 0.6; Binding of serum London to linear peptides of protein N of SARS-CoV Urbani [4]: 0.5; Binding of serum SARS-green to linear peptides of protein N of SARS-CoV Urbani [4]: 0.5; Binding of serum SARS-yellow to linear peptides of protein N of SARS-CoV Urbani [4]: 0.7 |
| RQLQNSMSGASADST | 0.1 | 0.2 |  |  |  |  | 0.2 | 0.1 | 0.3 | 0.1 | 0.4 | 0.2 | 0.2 | 0.1 | 0.2 | 0.5 | 0.3 | 0.2 | 0.2 | 0.2 | Control Serum Blood-Bank Looped peptides [3]: 0.4; Control serum Blood-bank linear peptides [3]: 0.7; Control serum LUMC linear peptides [3]: 0.6; Control serum LUMC looped peptides [3]: 0.2; Binding of serum 6 to linear peptides of protein N of SARS-CoV Urbani [4]: 0.2; Binding of serum 37 to linear peptides of protein N of SARS-CoV Urbani [4]: 0.7; Binding of serum 62 to linear peptides of protein N of SARS-CoV Urbani [4]: 0.6; Binding of serum London to linear peptides of protein N of SARS-CoV Urbani [4]: 0.6; Binding of serum SARS-green to linear peptides of protein N of SARS-CoV Urbani [4]: 0.3; Binding of serum SARS-yellow to linear peptides of protein N of SARS-CoV Urbani [4]: 0.5 |
| RRPQGLPNNTASWFT | 0.1 | 0.2 | 0.7 | 0.5 | 0.7 | 0.6 | 0.4 | 0.3 | 0.5 | 0.3 | 0.6 | 0.5 | 0.4 | 0.6 | 0.5 | 0.1 | 0.4 | 0.2 | 0.1 | 0.1 | Binding of serum 6 to linear peptides of protein N of SARS-CoV Urbani [4]: 0.1; Binding of serum 37 to linear peptides of protein N of SARS-CoV Urbani [4]: 0.6; Binding of serum 62 to linear peptides of protein N of SARS-CoV Urbani [4]: 0.6; Binding of serum London to linear peptides of protein N of SARS-CoV Urbani [4]: 0.4; Binding of serum SARS-green to linear peptides of protein N of SARS-CoV Urbani [4]: 0.2; Binding of serum SARS-yellow to linear peptides of protein N of SARS-CoV Urbani [4]: 0.6 |
